From patent US10815238B2, “Antimicrobial compounds and methods of making and using the same” (BIOVERSYS AG, priority 2013, dated 2020)

Experiments:
[1] = test system: Eschericia coli (E. coli) strain ATCC25922; assay: Standard microdilution assay, MIC against E. coli ATCC25922; format: cell-based; details: Escherichia coli; E. coli strain ATCC25922, standard microdilution assay; cutoff 16 micrograms/mL; read-out: MIC E. Coli
Method in brief: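 MIC determined by broth microdilution following CLSI protocols, with reference strains run in parallel for quality control. Activity scored +/− at a cutoff of 16 micrograms/mL.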

[2] = test system: Staphylococcus aureus (S. aureus) 11540 strain; assay: Standard microdilution assay, MIC against S. aureus 11540; format: cell-based; details: S. aureus 11540 strain, standard microdilution assay, cutoff 16 micrograms/mL, read-out: MIC S. aureus
Protocol: The in vitro activity of the compounds of the present invention can be determined. Antimicrobial testing is typically performed to determine the minimum inhibitory concentration (MIC). Minimum inhibitory concentrations (MICs) are determined by the microdilution method in a final volume of 100 μl according to protocols outlined by The Clinical and Laboratory Standards Institute (CLSI). Performance standards for reference strains are assessed within the same experimental design to maintain quality control. See, for example, Clinical Laboratory Standards Institute: Methods for dilution antimicrobial susceptibility tests for bacteria that grow aerobically M7-A8. Approved Standard-Eighth Edition. Wayne, Pa.: CLSI; December 2008; and Clinical Laboratory Standards Institute: Performance Standards for Antimicrobial Susceptibility Testing M100-S20; Approved Standard-Twentieth Edition. Wayne, Pa.: CLSI; June 2010.
The compounds of the present invention were tested for antimicrobial activity. The Compounds 1-582 were run against Eschericia coli (E. coli) strain ATCC25922 and Compounds 320-582 were run against Staphylococcus aureus (S. aureus) 11540 strain using a standard microdilution assay to determine minimum inhibitory concentrations (MICs). […] It will be recognized by one skilled in the art that the compounds can be assessed against other bacterial organisms and that the presentation of data for activity against Eschericia coli and Staphylococcus aureus are illustrative and in no way is intended to limit the scope of the present invention. The compounds of the present invention can be assayed against a range of other microorganisms depending upon the performance activity desired to be gathered. Furthermore, the “+” and “−” representation and the selection of a cutoff value of 16 micrograms/mL is also illustrative and in no way is intended to limit the scope of the present invention.

| SMILES | MIC [1] [µg/mL] | MIC [2] [µg/mL] |
| --- | --- | --- |
| C[C@H](N)CCCc1cc(Cl)c(F)c(-c2cc3cn(-c4ccc([C@H](C)NCC[C@H](CCC#N)NC(=N)N)cc4)c(=O)nc3[nH]2)c1 [Compound 314] | < 16 |  |
| C[C@H](N)CCCc1cc(OC(F)(F)F)c(F)c(-c2cc3cn(-c4ccc([C@H](C)NCC[C@H](CCC#N)NC(=N)N)cc4)c(=O)nc3[nH]2)c1 [Compound 315] | < 16 |  |
| CC(=O)Oc1ccccc1C(=O)OC[C@H](N)CCCc1cc(Cl)c(F)c(-c2cc3cn(-c4ccc([C@H](C)NCCCNC(=N)N)cc4)c(=O)nc3[nH]2)c1 [Compound 316] | < 16 |  |
| C[C@H](N)CCCc1cc(Cl)c(F)c(-c2cc3cn(-c4ccc([C@@H](C)NCCCNC(=N)N)cc4)c(=O)nc3[nH]2)c1 [Compound 317] | < 16 |  |
| C[C@H](N)CCCc1cc(Cl)c(F)c(-c2cc3cn(-c4ccc([C@@H](C)NCCCN)cc4)c(=O)nc3[nH]2)c1 [Compound 318] | < 16 |  |
| C[C@H](NCCCNC(=N)N)c1ccc(-n2cc3cc(-c4cc(CCC[C@@H](N)CN)cc(Cl)c4F)[nH]c3nc2=O)cc1 [Compound 319] | < 16 |  |
| C[C@H](N)CCCc1cc(OC(F)(F)F)c(F)c(-c2cc3cn(-c4ccc([C@@H](C)NCCCN)cc4)c(=O)nc3[nH]2)c1 [Compound 320] | < 16 | < 16 |
| C[C@H](N)CCCc1cc(OC(F)(F)F)c(F)c(-c2cc3cn(-c4ccc([C@@H](C)NCCCNC(=N)N)cc4)c(=O)nc3[nH]2)c1 [Compound 321] | < 16 | < 16 |
| C[C@H](N)CCCc1cc(Cl)c(F)c(-c2cc3cn(-c4ccc(CNCC[C@H](CN5CCOCC5)NC(=N)N)cc4)c(=O)nc3[nH]2)c1 [Compound 322] | < 16 | < 16 |
| C[C@H](N)CCCc1cc(Cl)c(F)c(-c2cc3cn(-c4ccc([C@H](C)NCC[C@@H](Cn5cc(CN)nn5)NC(=N)N)cc4)c(=O)nc3[nH]2)c1 [Compound 323] | < 16 | < 16 |
| C[C@H](NCCCN)c1ccc(-n2cc3cc(-c4cc(CCC[C@H](C)NC(=N)N)cc(Cl)c4F)[nH]c3nc2=O)cc1 [Compound 324] | < 16 | < 16 |
| C[C@H](N)CCCc1cc(OC(F)(F)F)c(F)c(-c2cc3cn(-c4ccc([C@H](C)NCC[C@H](CCN)NC(=N)N)cc4)c(=O)nc3[nH]2)c1 [Compound 325] | < 16 | < 16 |
| C[C@H](NCCCNC(=N)N)c1ccc(-n2cc3cc(-c4cc(CCC[C@@H](N)CN=[N+]=[N-])cc(Cl)c4F)[nH]c3nc2=O)cc1 [Compound 326] | < 16 | < 16 |
| C[C@H](N)CCCc1cc(OC(F)(F)F)c(F)c(-c2cc3cn(-c4ccc([C@H](C)NCC[C@@H](Cn5cc(CN)nn5)NC(=N)N)cc4)c(=O)nc3[nH]2)c1 [Compound 327] | < 16 | < 16 |
| C[C@H](N)CCCc1cc(OC(F)(F)F)c(F)c(-c2cc3cn(-c4ccc(CNCC[C@H](CN5CCOCC5)NC(=N)N)cc4)c(=O)nc3[nH]2)c1 [Compound 328] | < 16 | < 16 |
| COC[C@@H](CCN[C@@H](C)c1ccc(-n2cc3cc(-c4cc(CCC[C@H](C)N)cc(OC(F)(F)F)c4F)[nH]c3nc2=O)cc1)NC(=N)N [Compound 329] | < 16 | < 16 |
| COC[C@@H](CCN[C@@H](C)c1ccc(-n2cc3cc(-c4cc(CCC[C@H](C)N)cc(Cl)c4F)[nH]c3nc2=O)cc1)NC(=N)N [Compound 330] | < 16 | < 16 |
| C[C@H](NCCCNC(=N)N)c1ccc(-n2cc3cc(-c4cc(CCC[C@@H](N)COC(=O)Cc5ccccc5)cc(Cl)c4F)[nH]c3nc2=O)cc1 [Compound 331] | < 16 | < 16 |
| C[C@H](N)CCCc1cc(Cl)c(F)c(-c2cc3cn(-c4ccc([C@H](C)NCC[C@H](CC#N)NC(=N)N)cc4)c(=O)nc3[nH]2)c1 [Compound 332] | < 16 | < 16 |
| C[C@H](N)CCCc1cc(OC(F)(F)F)c(F)c(-c2cc3cn(-c4ccc([C@H](C)NCC[C@H](CC#N)NC(=N)N)cc4)c(=O)nc3[nH]2)c1 [Compound 333] | < 16 | < 16 |
| C[C@H](N)CCCc1cc(Cl)c(F)c(-c2cc3cn(-c4ccc([C@H](C)NCC[C@H](CN5CCOCC5)NC(=N)N)cc4)c(=O)nc3[nH]2)c1 [Compound 334] | < 16 | < 16 |
| C[C@H](N)CCCc1cc(OC(F)(F)F)c(F)c(-c2cc3cn(-c4ccc([C@H](C)NCC[C@@H](CCN)NC(=N)N)cc4)c(=O)nc3[nH]2)c1 [Compound 335] | < 16 | < 16 |

| SMILES | MIC [1] [µg/mL] | MIC [2] [µg/mL] |
| --- | --- | --- |
| C=C[C@@H](C[C@H](C)NCc1ccc(-n2cc3cc(-c4cc(CCC[C@H](C)N)cc(Cl)c4F)[nH]c3nc2=O)cc1)NC(=N)N [Compound 336] | < 16 | < 16 |
| C=C[C@@H](C[C@H](C)NCc1ccc(-n2cc3cc(-c4cc(CCC[C@H](C)N)cc(OC(F)(F)F)c4F)[nH]c3nc2=O)cc1)NC(=N)N [Compound 337] | < 16 | < 16 |
| C=C[C@H](C[C@H](C)NCc1ccc(-n2cc3cc(-c4cc(CCC[C@H](C)N)cc(Cl)c4F)[nH]c3nc2=O)cc1)NC(=N)N [Compound 338] | < 16 | < 16 |
| C=C[C@H](C[C@H](C)NCc1ccc(-n2cc3cc(-c4cc(CCC[C@H](C)N)cc(OC(F)(F)F)c4F)[nH]c3nc2=O)cc1)NC(=N)N [Compound 339] | < 16 | < 16 |
| COC[C@@H](CCNC(=N)N)NCc1ccc(-n2cc3cc(-c4cc(CCC[C@H](C)N)cc(Cl)c4F)[nH]c3nc2=O)cc1 [Compound 340] | < 16 | < 16 |
| C[C@H](N)CCCc1cc(Cl)c(F)c(-c2cc3cn(-c4ccc([C@H](C)NCC[C@@H](CN5CCOCC5)NC(=N)N)cc4)c(=O)nc3[nH]2)c1 [Compound 341] | < 16 | < 16 |
| C[C@H](N)CC[C@H](N)c1cc(Cl)c(F)c(-c2cc3cn(-c4ccc([C@H](C)NCCCNC(=N)N)cc4)c(=O)nc3[nH]2)c1 [Compound 342] | < 16 | < 16 |
| C[C@H](NCCCNC(=N)N)c1ccc(-n2cc3cc(-c4cc([C@@H]5CC[C@H](C)N5)cc(Cl)c4F)[nH]c3nc2=O)cc1 [Compound 343] | < 16 | < 16 |
| C[C@H](N)CCCc1cc(OC(F)(F)F)c(F)c(-c2cc3cn(-c4ccc([C@H](C)NCC[C@H](CC(N)=O)NC(=N)N)cc4)c(=O)nc3[nH]2)c1 [Compound 344] | < 16 | < 16 |
| COC[C@H](CCN[C@@H](C)c1ccc(-n2cc3cc(-c4cc(CCC[C@H](C)N)cc(Cl)c4F)[nH]c3nc2=O)cc1)NC(=N)N [Compound 345] | < 16 | < 16 |
| COC[C@H](CCN[C@@H](C)c1ccc(-n2cc3cc(-c4cc(CCC[C@H](C)N)cc(OC(F)(F)F)c4F)[nH]c3nc2=O)cc1)NC(=N)N [Compound 346] | < 16 | < 16 |
| COCC[C@H](CCN[C@@H](C)c1ccc(-n2cc3cc(-c4cc(CCC[C@H](C)N)cc(Cl)c4F)[nH]c3nc2=O)cc1)NC(=N)N [Compound 347] | < 16 | < 16 |
| C[C@H](N)CCCc1cc(Cl)c(F)c(-c2cc3cn(-c4ccc([C@H](C)NCC[C@H](CC(N)=O)NC(=N)N)cc4)c(=O)nc3[nH]2)c1 [Compound 348] | < 16 | < 16 |
| C[C@H](N)CCCc1cc(Cl)c(F)c(-c2cc3cn(-c4ccc([C@H]5CC[C@H](CCNC(=N)N)N5)cc4)c(=O)nc3[nH]2)c1 [Compound 349] | < 16 | < 16 |
| COCC[C@H](CCN[C@@H](C)c1ccc(-n2cc3cc(-c4cc(CCC[C@H](C)N)cc(OC(F)(F)F)c4F)[nH]c3nc2=O)cc1)NC(=N)N [Compound 350] | < 16 | < 16 |
| COC[C@@H](CCNC(=N)N)NCc1ccc(-n2cc3cc(-c4cc(CCC[C@H](C)N)cc(OC(F)(F)F)c4F)[nH]c3nc2=O)cc1 [Compound 351] | < 16 | < 16 |
| C[C@H](N)CCCc1cc(OC(F)(F)F)c(F)c(-c2cc3cn(-c4ccc([C@H]5CC[C@H](CCNC(=N)N)N5)cc4)c(=O)nc3[nH]2)c1 [Compound 352] | < 16 | < 16 |
| C[C@H](N)CCCc1cc(Cl)c(F)c(-c2cc3cn(-c4ccc([C@@H]5COC[C@@H](CCNC(=N)N)N5)cc4)c(=O)nc3[nH]2)c1 [Compound 353] | < 16 | < 16 |
| C[C@H](N)CCCc1cc(Cl)c(F)c(-c2cc3cn(-c4ccc([C@@H]5COC[C@@H](CCN)N5)cc4)c(=O)nc3[nH]2)c1 [Compound 354] | < 16 | < 16 |
| COC[C@H](CCNC(=N)N)N[C@@H](C)c1ccc(-n2cc3cc(-c4cc(CCC[C@H](C)N)cc(Cl)c4F)[nH]c3nc2=O)cc1 [Compound 355] | < 16 | < 16 |
| COC(=O)[C@H](CCNC(=N)N)N[C@@H](C)c1ccc(-n2cc3cc(-c4cc(CCC[C@H](C)N)cc(Cl)c4F)[nH]c3nc2=O)cc1 [Compound 356] | < 16 | < 16 |
